Assay results taken from patent publication US20240252496A1, “SELECTIVE HYPOTHALAMUS PERMEABLE HDAC6 INHIBITORS FORTREATMENT OF LEPTIN-RESISTANT OBESITY” (The Children’s Medical Center Corporation, priority 2022, published 2024).

What was measured:
[1] = Brain/plasma ratio, brain and hypothalamus penetrance; type: in vivo; settings: in words
HDAC6 [2] = molecular target: T1, HDAC6 (Mus musculus (Mouse), UniProt Q9Z2V5); test: HDAC6 inhibition in hypothalamus and other brain regions (Ac-tubulin); design: species or system mice; settings: in vivo
T1 sequence (Q9Z2V5 whole entry): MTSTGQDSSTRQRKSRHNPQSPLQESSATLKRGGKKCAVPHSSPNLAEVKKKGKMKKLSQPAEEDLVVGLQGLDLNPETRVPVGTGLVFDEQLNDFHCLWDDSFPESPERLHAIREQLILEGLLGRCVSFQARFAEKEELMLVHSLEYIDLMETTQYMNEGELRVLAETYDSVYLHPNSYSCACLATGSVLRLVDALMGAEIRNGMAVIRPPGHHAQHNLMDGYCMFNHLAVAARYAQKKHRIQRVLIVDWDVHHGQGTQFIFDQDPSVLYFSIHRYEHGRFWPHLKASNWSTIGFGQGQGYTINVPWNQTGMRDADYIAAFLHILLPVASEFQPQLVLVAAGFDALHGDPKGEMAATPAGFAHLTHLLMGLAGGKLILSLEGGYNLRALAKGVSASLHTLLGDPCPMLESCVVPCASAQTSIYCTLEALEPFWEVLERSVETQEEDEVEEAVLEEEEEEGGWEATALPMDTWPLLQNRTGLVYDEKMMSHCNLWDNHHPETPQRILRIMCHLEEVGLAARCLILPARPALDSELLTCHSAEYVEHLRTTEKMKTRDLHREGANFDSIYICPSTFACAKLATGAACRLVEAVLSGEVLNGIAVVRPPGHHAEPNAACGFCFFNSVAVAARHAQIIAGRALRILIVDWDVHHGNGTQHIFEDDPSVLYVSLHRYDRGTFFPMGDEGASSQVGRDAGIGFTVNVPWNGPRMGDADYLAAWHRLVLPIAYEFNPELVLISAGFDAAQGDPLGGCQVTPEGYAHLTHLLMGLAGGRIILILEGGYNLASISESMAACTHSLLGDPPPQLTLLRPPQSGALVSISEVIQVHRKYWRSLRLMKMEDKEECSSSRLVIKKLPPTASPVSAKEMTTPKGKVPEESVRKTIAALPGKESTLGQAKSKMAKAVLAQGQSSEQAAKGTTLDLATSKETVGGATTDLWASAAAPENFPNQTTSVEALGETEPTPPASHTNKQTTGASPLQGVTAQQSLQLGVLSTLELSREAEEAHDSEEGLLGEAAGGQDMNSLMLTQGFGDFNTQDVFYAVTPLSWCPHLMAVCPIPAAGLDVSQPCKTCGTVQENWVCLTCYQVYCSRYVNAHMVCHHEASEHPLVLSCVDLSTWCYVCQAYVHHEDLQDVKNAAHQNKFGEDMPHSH

LepRb-HDAC6 interaction = LepRb-HDAC6 interaction (Mus musculus (Mouse), UniProt Q9Z2V5); test: LepRb-flag / HDAC6-myc co-immunoprecipitation in HEK293 cells; type: cell-based; settings: 200 nM for 1 h
Chain of LepRb-HDAC6 interaction (Q9Z2V5 whole entry): as above
Experimental: It was hypothesized that HDAC6 might interact with leptin receptor b (LepRb). To test this hypothesis, HEK293 cells were transfected with GFP or HDAC6-myc or LepRb-flag or LepRb-flag and HDAC6-myc expressing plasmids. Subsequently, cells were treated either with vehicle or HDAC6 inhibitor (ACY775) (200 nM for 1 h). Then Flag immunoprecipitation was performed to pull down LepRb and subsequently immunoblot these immune-precipitates with Myc and Flag antibodies.
HEK293 cells were transfected with GFP (as control) or HDAC6 or LepRb or LepRb and HDAC6 together. Subsequently cells were either treated with vehicle or HDAC6 inhibitor (ACY775) (200 nM for 1 h). Flag immunoprecipitation was used to pull down LepRb, followed by Myc and Flag immunoblotting.

HDAC6 [3] = molecular target: T1, HDAC6; test: LepRb acetyl-lysine immunoblotting in HEK293 cells; type: cell-based; settings: 200 nM, 0.5-3 h
Experimental: HEK293 cells were transfected with the plasmids and were treated with vehicle or ACY775. Subsequently Flag immunoprecipitation was used to pull down LepRb followed by Ac^Lys or Flag immunoblotting.
To test whether HDAC6 can deacetylate LepRb, HEK293 cells were transfected with plasmids (LepRb-Flag, HA-p300 and HDAC6-myc). LepRb was immunoprecipitated by Flag antibodies, which was followed by acetyl-lysine (Ac^Lys) or immunoblottings.
Next, cells were transfected with plasmids (LepRb-Flag, HA-p300 and HDAC6-myc) and subsequently treated with ACY775 ([…]) for 0.5, 1, 2 and 3 h. […] Next, to investigate whether HDAC6 has any effect on LepRb tyrosine phosphorylation, which is indicative of LepRb activation, HEK 293 cells were transfected with LepRb and HDAC6-Myc plasmids in the indicated order and the cells stimulated with leptin (200 ng/ml) for 10 and 60 minutes. The Flag immunoprecipitates were exposed to phospho-tyrosine (p^Tyr) immunoblotting.

HDAC6 in AgRP neurons = test: DIO mice with HDAC6 deleted in AgRP neurons (HDAC6^Agrp-Δ); type: in vivo
Experimental: Design, validation, and stereotaxic injection of AAV viral vector carrying the guide RNAs targeting the mouse HDAC6 genomic locus. Three designed sgRNAs were concatenated and constructed into an AAV vector carrying a cre-enabled mCherry fluorescent marker.
Following the bilateral injection of AAV-sgHDAC6 into the arcuate nucleus of Agrp-ires-cre::LSL-Cas9-GFP (Agrp-Cre^+/−::Cas9^+/−) or control LSL-Cas9-GFP (Cas9^+/−) mice, immunostaining to detect the expression of mCherry and GFP was performed. AAV-sg-HDAC6 injected Agrp-Cre^+/−::Cas9^+/− (HDAC6^Agrp-Δ) and Cas9^+/− (HDAC6^WT) DIO mice (n=7 for each group) were fasted for 24 hours, and injected with ACY775 (10 mg/kg. i.p). Hourly total dark cycle food intake (g) (n=7 for each group) of these mice after ACY775 injection was measured. Body weight of AAV-sg-HDAC6 injected HDAC6^Agrp-Δ (n=11) and HDAC6^WT (n=6) mice were measured during 3 weeks of ACY775 (10 mg/kg/day, i.p.) treatment. Daily average food intake of HDAC6^Agro-Δ (n=11) and HDAC6^WT (n=6) mice was measured during 3 weeks of ACY775 (10 mg/kg/day, i.p.) treatment. 24-hour food intake average of HDAC Agrp- and HDAC6^WT mice during the 3 weeks of ACY775 treatment was assessed. Serum leptin level (ng/ml) of HDAC6^Agrp-Δ and HDAC6^WT mice after 2 weeks of ACY775 treatment (n=13 for HDAC6^WT and n=18 for HDAC6^Agrp-Δ) was measured. Lean mass (g); fat mass; and fat percentage (%) of HDAC Agrp- and HDAC6^WT DIO mice after 3 weeks of ACY775 treatment was measured by DEXA scan. The HDAC6 inhibitor responsive neurons in the dorsomedial hypothalamus (DMH) were assessed. Immunostaining and quantification of c-Fos expression was performed in the DMH of DIO mice following one-time ACY775 treatment (10 mg/kg, i.p.).

O=C(CCCCCCNC(=O)c1cnc(N(c2ccccc2)c2ccccc2)nc1)NO [Ricolinostat]
penetrance into the hypothalamus [1]: neither of which have high penetrance into the hypothalamus | HDAC6 inhibition in the hypothalamus (HDAC6 [2]): nor show HDAC6 inhibition in the hypothalamus

O=C(NO)c1cnc(NC2(c3cccc(F)c3)CCCCC2)nc1 [ACY775, 2-[[1-(3-fluorophenyl)cyclohexyl]amino]-N-hydroxy-5-pyrimidinecarboxamide]
HDAC6 interaction with LepRb (LepRb-HDAC6 interaction): blocks this interaction | deacetylation of LepRb (HDAC6 [3]): completely block deactylation of LepRb | suppression of food intake after a single dose in HDAC6^Agrp-Δ DIO mice (HDAC6 in AgRP neurons; ACY775 10 mg/kg i.p., fasted): almost complete resistance to ACY755-induced suppression of food intake | anti-obesity effects in HDAC6^Agrp-Δ vs HDAC6^WT DIO mice (HDAC6 in AgRP neurons; chronic treatment): Significantly attenuated effects of ACY775 on all the parameters
